# Data published in PMC4560162, “Discovery of small molecule inhibitors of xyloglucan endotransglucosylase (XET) activity by high-throughput screening” (Phytochemistry, 2015).
# “And” between values parts separate entries of the source, which are not always exact repeats. Equal values may be shown once. “Also recorded” adds a separate entry of the source. Read-outs that look alike come from different tables or passages of the source.
# How the values were obtained:
# [1] = system: Petroselinum xyloglucan endotransglucosylase (XET) activity; assay: Fluorescent dot-blot XET screen (cellulose-bound xyloglucan + XGO–SR on paper, in the dark); assay type: biochemical, parsley; conditions: for effect on XET activity in dot-blot (inhibition / promotion): EDI 0.4 mg/ml, LATCA 50 μM, 2 h, dark, cellulose-bound xyloglucan; for coagulation ('type c' effect) in dot-blot: EDI collection, 0.4 mg/ml in enzyme mixture
# Experimental: For inhibitor screening, 53 new 96-well plates were set up with 50 μl of parsley enzyme extract per well, and 1 μl of DMSO-solubilised xenobiotic was added to each well, giving concentrations of 0.4 mg/ml (EDI collection, with exceptions noted in Table S2) or 50 μM (LATCA collection) and 2% v/v DMSO.
# XET test-paper was prepared as before ([Fry, 1997]) and 112 × 75-mm sheets were attached to cellulose acetate overhead-projector sheets with ‘Spraymount’ adhesive. Each sheet was placed on a pre-cooled glass plate in a cold room at 4 °C.
# For inhibitor screening (Fig. 2), 4 μl of a parsley enzyme/xenobiotic mixture was applied to each position on a sheet. Incubation at 20 °C for 2 h, washing, drying and photography were conducted essentially as above.
# parsley XET activity = assay: Radiochemical XET assay (soluble xyloglucan + [3H]XXXGol); assay type: biochemical; conditions: for effect on XET activity, radiochemical re-screen of 206 compounds (mostly LATCA): LATCA approx. 25 μM, EDI approx. 200 μg/ml, listed in order of decreasing effectiveness; for effect on XET activity in radiochemical assays (as summarised in the discussion) / IC50: soluble xyloglucan, laboratory light; for effect on XET activity in radiochemical assays (as summarised in the discussion): free solution; for effect on XET activity, first radiochemical re-screen of EDI hits: most xenobiotics at 200 μg/ml (≈200–800 μM); for IC50: read-out: IC50 (concentration required for 50% inhibition of XET activity), radiochemical assay, 20 °C
# Experimental: The parsley enzyme concentration was held constant, and the xenobiotics were tested at 200, 160, 120, 80, 40, 20, 10 and 0 μg/ml (concentrations in the final reaction mixture). Other details were as above.
# The riboflavin-free controls received the same DMSO concentration.
# [2] = system: Rosa cell-suspension cultures; assay: Membrane function ([14C]proline uptake) in Rosa culture; assay type: cell-based, Rosa ("Paul's Scarlet" rose); conditions: 4 d after xenobiotic
# Experimental: Before testing the effects of XET-inhibitors on cell expansion, we defined their non-toxic concentrations. The eight XET-inhibiting xenobiotics mentioned in §2.7 were tested for cytotoxicity in cultured Rosa and Zea cells, by simple tests of the compounds’ ability to inhibit membrane and ribosome function based on [^14C]proline uptake and incorporation. In xenobiotic-free control 4-d-old Rosa cultures, 93.3% and 94.3% of the supplied [^14C]proline was absorbed from the medium within 2 and 4 h respectively, indicating healthy membrane function. In xenobiotic-free 4-d-old Zea cultures, the corresponding figures were 93.9% and 92.5%. By 4 h, 5.5% of the total [^14C]proline supplied had been incorporated into protein by Rosa and 9.3% by Zea cells, indicating healthy ribosome function. Against these control rates, we recorded any inhibition of membrane and ribosome function by the xenobiotics (Fig. 8). Each xenobiotic was tested at two concentrations (¼ and ^1/20 of the lowest non-tolerated concentration), which had been selected on the basis of preliminary experiments with a dilution series of the xenobiotic.
# Eight xenobiotics that inhibited XET activity were selected for biological testing. Mini-cultures [2 ml, 5% (v/v) SCV; transferred from a standard culture 7 d after sub-culturing] were incubated in 12-well tissue culture microplates with the lids closed loosely. Xenobiotics were added as concentrated stocks in DMSO (final DMSO concentration 2%), and incubation was continued aseptically under standard conditions of temperature, lighting and shaking. After 4 d, 1 kBq of [^14C]proline was added per mini-culture. […] The culture was brought up to 10 ml with water and the settled and packed cell volumes (SCV, PCV) were then measured ([Fry and Street, 1980]). […] After 0.5 h at 100 °C, a 100-μl aliquot of the centrifuged SDS-extract was dried onto Whatman No. 3 paper, which was then washed in 75% ethanol supplemented with 0.5% acetic acid, thus removing free [^14C]proline and its low-Mr metabolites if any; radioactivity remaining on the paper ([^14C]protein) was then assayed.
# [3] = system: Zea cell-suspension cultures; assay: Membrane function ([14C]proline uptake) in Zea culture; assay type: cell-based, Zea mays; conditions: 4 d after xenobiotic
# [4] = system: nine other cell-wall enzyme activities; assay: Dot-blot assays for nine additional wall enzyme activities; assay type: biochemical, parsley and lucerne (alfalfa); conditions: xenobiotic 200 mg/l
# Experimental: Radiolabelled oligosaccharide ([1-^3H]Gal12-ol or [1-^3H]Xyl6-ol; 1 kBq; containing a trace of Orange G) was dried into each well of a 96-well plate. […] The mixture was incubated for 24 h (for Gal12-ol) or 48 h (for Xyl6-ol), then the 5-μl reaction mixture was dried onto each position on a piece of plain Whatman No. 1 paper in 96-well format. Visual inspection of the Orange G verified that the samples had been correctly applied to the paper. […] Thus, in this assay, radioactive spots reveal inhibition of the enzyme.
# [5] = system: Zea cell-suspension cultures; assay: Cell expansion (SCV, PCV) in Zea cell-suspension culture; assay type: cell-based, Zea mays; conditions: for concentration inhibiting growth (PCV) without membrane impairment: Zea, 4 d incubation
# Experimental: (§1) Cell-suspension cultures of “Paul’s Scarlet” rose [a complex hybrid; genus Rosa; isolated in October 1957 from sections of young stem material; [Nickell and Tulecke, 1959]) and maize (Zea mays L., Black Mexican Sweetcorn, donated by Dr. I. Moore, Department of Botany, University of Edinburgh) were grown under constant dim illumination (10 μmol m^−2 s^−1) on an orbital shaker at 25 °C. Rose cells were maintained as described by [Chormova et al. (2014)] and maize cells as described by [Kerr and Fry (2003)].
# (§2) Eight xenobiotics that inhibited XET activity were selected for biological testing. Mini-cultures [2 ml, 5% (v/v) SCV; transferred from a standard culture 7 d after sub-culturing] were incubated in 12-well tissue culture microplates with the lids closed loosely. Xenobiotics were added as concentrated stocks in DMSO (final DMSO concentration 2%), and incubation was continued aseptically under standard conditions of temperature, lighting and shaking. After 4 d, 1 kBq of [^14C]proline was added per mini-culture. A small volume of medium (50 μl) was sampled 2 and 4 h after [^14C]proline addition and assayed for remaining extracellular ^14C. The culture was brought up to 10 ml with water and the settled and packed cell volumes (SCV, PCV) were then measured ([Fry and Street, 1980]). Most of the culture medium was then removed and the cells were finally killed by addition of 0.5 ml of 6% SDS. After 0.5 h at 100 °C, a 100-μl aliquot of the centrifuged SDS-extract was dried onto Whatman No. 3 paper, which was then washed in 75% ethanol supplemented with 0.5% acetic acid, thus removing free [^14C]proline and its low-Mr metabolites if any; radioactivity remaining on the paper ([^14C]protein) was then assayed.
# [6] = system: Rosa cell-suspension cultures; assay: Cell expansion (SCV, PCV) in Rosa cell-suspension culture; assay type: cell-based, Rosa ("Paul's Scarlet" rose); conditions: for concentration inhibiting growth (PCV) without membrane impairment: Rosa, 4 d incubation
# Experimental: as §1, §2
# [7] = target: cyclic-AMP-dependent protein kinase, PKA; set-up: method as in Losiewicz et al., 1994; conditions: ref Losiewicz et al., 1994; cited from earlier work
molecule,measurement,setting,value
CC1=C(/C=C/C(C)=C/C=C/C(C)=C\C(=O)O)C(C)(C)CCC1 [13-cis-retinoic acid],effect on XET activity in dot-blot (inhibition / promotion),[1],did not show inhibitory effects
same,"effect on XET activity, radiochemical re-screen of 206 compounds (mostly LATCA)",parsley XET activity,inhibition
same,membrane function,[2]; higher tested concentration,impaired
same,membrane function,[3]; at the concentrations tested,only slightly
O=c1cc(-c2ccccc2)oc2cc(O)c(O)c(O)c12 [baicalein],effect on XET activity in dot-blot (inhibition / promotion),[1],promoted
same,coagulation ('type c' effect) in dot-blot,[1],coagulation
same,effect on XET activity in radiochemical assays (as summarised in the discussion),parsley XET activity,inhibited
CCOc1ccc(Nc2ccc(/C(=C3C=C/C(=[N+](/CC)Cc4cccc(S(=O)(=O)[O-])c4)C=C/3C)c3ccc(N(CC)Cc4cccc(S(=O)(=O)O)c4)cc3C)cc2)cc1 [brilliant blue G],"effect on XET activity, first radiochemical re-screen of EDI hits",parsley XET activity,inhibitory
same,number of the nine other wall enzyme activities inhibited,[4],three
same,concentration inhibiting growth (PCV) without membrane impairment,[5],100 µM
same,membrane function,[2]; higher tested concentration,impaired
same,membrane function,[3]; higher tested concentration,impaired
COc1cccc2c1C(=O)c1c(O)c3c(c(O)c1C2=O)C[C@@](O)(C(C)=O)C[C@@H]3O[C@H]1C[C@H](N)[C@H](O)[C@H](C)O1 [daunorubicin],effect on XET activity in dot-blot (inhibition / promotion),[1],apparent promoters; also recorded: promoted
same,effect on XET activity in radiochemical assays (as summarised in the discussion),parsley XET activity,moderately inhibitory; also recorded: inhibited
O=c1c2ccccc2[se]n1-c1ccccc1 [ebselen],effect on XET activity in dot-blot (inhibition / promotion),[1],XET inhibitor
same,"effect on XET activity, radiochemical re-screen of 206 compounds (mostly LATCA)",parsley XET activity,inhibition
same,concentration inhibiting growth (PCV) without membrane impairment,[5],70 µM
"O=C(O[C@@H]1Cc2c(O)cc(O)cc2O[C@@H]1c1cc(O)c(O)c(O)c1)c1cc(O)c(O)c(O)c1 [epigallocatechin gallate, (−)-epigallocatechin gallate]",effect on XET activity in dot-blot (inhibition / promotion),[1],promoted
same,effect on XET activity in dot-blot (inhibition / promotion),[1]; listed as (−)-epigallocatechin gallate,coagulating promoter
same,coagulation ('type c' effect) in dot-blot,[1],coagulation
same,IC50,parsley XET activity; 2 h,~400 µM
same,effect on XET activity in radiochemical assays (as summarised in the discussion),parsley XET activity,inhibited
same,number of the nine other wall enzyme activities inhibited,[4],eight
same,concentration inhibiting growth (PCV) without membrane impairment,[6],870 µM
same,concentration inhibiting growth (PCV) without membrane impairment,[5],40 µM
same,membrane function,[3]; higher tested concentration,impaired
Cc1cc2nc3c(=O)[nH]c(=O)nc-3n(C[C@H](O)[C@H](O)[C@H](O)COP(=O)(O)OP(=O)(O)OC[C@H]3O[C@@H](n4cnc5c(N)ncnc54)[C@H](O)[C@@H]3O)c2cc1C [flavin adenine dinucleotide],effect on XET activity in dot-blot (inhibition / promotion),[1],did not show inhibitory effects
same,"effect on XET activity, radiochemical re-screen of 206 compounds (mostly LATCA)",parsley XET activity,inhibition
CN1CC[C@H](c2c(O)cc(O)c3c(=O)cc(-c4ccccc4Cl)oc23)[C@H](O)C1 [flavopiridol],IC50,[7],145 µM
O=C(O)[C@H](O)[C@@H](O)[C@H](O[C@@H]1O[C@H](CO)[C@H](O)[C@H](O)[C@H]1O)[C@H](O)CO [lactobionic acid],effect on XET activity in dot-blot (inhibition / promotion),[1],promotion; also recorded: promoted
same,effect on XET activity in radiochemical assays (as summarised in the discussion),parsley XET activity,little effect
O=c1cc(-c2ccc(O)c(O)c2)oc2cc(O)cc(O)c12 [luteolin],effect on XET activity in dot-blot (inhibition / promotion),[1],promoted
same,coagulation ('type c' effect) in dot-blot,[1],coagulation
same,effect on XET activity in radiochemical assays (as summarised in the discussion),parsley XET activity,inhibited
COc1c(C)c2c(c(O)c1C/C=C(\C)CCC(=O)O)C(=O)OC2 [mycophenolic acid],concentration inhibiting growth (PCV) without membrane impairment,[5],60 µM
same,membrane function,[3]; higher tested concentration,impaired
O=C1OC(c2ccc(O)cc2)(c2ccc(O)cc2)c2ccccc21 [phenolphthalein],coagulation ('type c' effect) in dot-blot,[1],coagulation
same,"effect on XET activity, first radiochemical re-screen of EDI hits",parsley XET activity,inhibitory
CC(=O)[O][Hg][c]1ccccc1 [phenylmercuric acetate],effect on XET activity in dot-blot (inhibition / promotion),[1],inhibitors
same,"effect on XET activity, radiochemical re-screen of 206 compounds (mostly LATCA)",parsley XET activity,inhibition
O=C(CCc1ccc(O)cc1)c1c(O)cc(O)cc1O [phloretin],effect on XET activity in dot-blot (inhibition / promotion),[1],promoted
same,coagulation ('type c' effect) in dot-blot,[1],coagulation
same,"effect on XET activity, first radiochemical re-screen of EDI hits",parsley XET activity,inhibitory
same,effect on XET activity in radiochemical assays (as summarised in the discussion),parsley XET activity,inhibited
O=C(O)[C@]1(O)C[C@@H](O)[C@@H](O)[C@H](O)C1 [quinic acid],effect on XET activity in dot-blot (inhibition / promotion),[1],promoted
same,effect on XET activity in radiochemical assays (as summarised in the discussion),parsley XET activity,little effect
Cc1cc2nc3c(=O)[nH]c(=O)nc-3n(C[C@H](O)[C@H](O)[C@H](O)CO)c2cc1C [riboflavin],"[3H]Xyloglucan formed, Low light","parsley XET activity; 0.5 mM riboflavin, 0.2 lux, 2 h, control without riboflavin 8861 ± 105, mean ± SE of 4",5390 ± 130 cpm
same,"[3H]Xyloglucan formed, High light","parsley XET activity; 0.5 mM riboflavin, 1100 lux, 2 h, control without riboflavin 8942 ± 349, mean ± SE of 4",807 ± 63 cpm
same,"effect on XET activity, radiochemical re-screen of 206 compounds (mostly LATCA)",parsley XET activity,inhibition
same,IC50,parsley XET activity; 2 h,29 µM and ~30 µM
same,number of the nine other wall enzyme activities inhibited,[4],eight
same,membrane function,[3]; at the concentrations tested,impaired
C[CH2][Hg][S]c1ccccc1C(=O)[O-].[Na+] [thiomersal],effect on XET activity in dot-blot (inhibition / promotion),[1],did not show inhibitory effects
same,"effect on XET activity, radiochemical re-screen of 206 compounds (mostly LATCA)",parsley XET activity,inhibition
COC(=O)/C(=C1/OC(=O)C(c2ccccc2)=C1O)c1ccccc1 [vulpinic acid],effect on XET activity in dot-blot (inhibition / promotion),[1],did not show inhibitory effects
same,effect on XET activity in radiochemical assays (as summarised in the discussion),parsley XET activity,inhibitor
same,number of the nine other wall enzyme activities inhibited,[4],two
same,membrane function,[2]; at the concentrations tested,impaired
erythrosin B,"effect on XET activity, radiochemical re-screen of 206 compounds (mostly LATCA)",parsley XET activity,inhibition
same,"effect on XET activity, first radiochemical re-screen of EDI hits",parsley XET activity,inhibitory
same,IC50,parsley XET activity; 2 h,36 µM
same,IC50,"parsley XET activity; 2 h, listed as erythrosin B",~30 µM
same,concentration that inhibited cell expansion (abstract),[6]; Rosa cell-suspension culture,1 µM
same,concentration inhibiting growth (PCV) without membrane impairment,[6],1.1 µM
same,concentration that inhibited cell expansion / culture growth (abstract),[5]; Zea cell-suspension culture,1 µM
same,membrane function,[3]; at the concentrations tested,impaired
